Measurements from patent publication US11795177B2, “Substituted quinoline analogs as aldehyde dehydrogenase 1A1 (ALDH1A1) inhibitors” (THE UNITED STATES OF AMERICA, AS REPRESENTED BY THE …, priority 2017, dated 2023).

Assays:
[1] = target: T1, ALDH1A1 enzyme (Homo sapiens, UniProt P00352); test: ALDH1A1 enzymatic assay (in vitro); format: biochemical; details: ALDH1A1 enzyme 20 nM, NAD+ 1 mM, propionaldehyde 80 μM; read-out: ALDH1A1 IC50
T1 sequence (P00352 1-501): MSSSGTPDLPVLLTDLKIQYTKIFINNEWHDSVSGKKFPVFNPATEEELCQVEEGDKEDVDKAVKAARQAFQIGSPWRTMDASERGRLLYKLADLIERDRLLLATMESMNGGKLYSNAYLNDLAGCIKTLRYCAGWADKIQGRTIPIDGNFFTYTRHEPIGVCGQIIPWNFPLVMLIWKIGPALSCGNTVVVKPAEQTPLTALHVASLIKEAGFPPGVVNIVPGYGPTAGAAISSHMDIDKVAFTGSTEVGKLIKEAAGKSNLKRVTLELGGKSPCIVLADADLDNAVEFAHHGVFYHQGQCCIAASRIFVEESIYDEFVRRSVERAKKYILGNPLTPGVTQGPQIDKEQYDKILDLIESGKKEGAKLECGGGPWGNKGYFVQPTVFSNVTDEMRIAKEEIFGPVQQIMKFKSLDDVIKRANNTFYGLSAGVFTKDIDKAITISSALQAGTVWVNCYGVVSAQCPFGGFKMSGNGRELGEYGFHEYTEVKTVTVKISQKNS
Summary of the method: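 ALDH1A1 (20 nM final) in 100 mM HEPES pH 7.5, 0.01% Tween 20 was preincubated 15 min at RT with compound (968 pM–57.2 μM final), then started with 1 mM NAD+ and 80 μM propionaldehyde. NADH fluorescence (ex 340/em 450 nm) followed kinetically for 10 min; change normalized to no-inhibitor and no-enzyme controls for percent inhibition and curve fitting.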

[2] = system: MIA PaCa-2 cells; test: MIA PaCa2 cell-based assay (1,536-well high-content imaging ALDEFLUOR assay); set-up: species or system human; details: Homo sapiens, 0.5 h, ALDEFLUOR BAAA substrate 500 nM, 30 minutes
Summary of the method: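 MIA PaCa-2 cells (1,000/well), plated overnight, given BAAA substrate (500 nM) plus Hoechst 33342 (0.5 nM), then compound (16-point, 1.4 nM–47.8 μM final; 0.5% DMSO). After 30 min at 37° C, ALDH activity imaged by high-content microscopy as BAA-retaining (FITC) cells versus Hoechst-stained nuclei.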

IC50 [1] [nM] | IC50 [2] [nM] | Compound
< 500 | 1000 to 10000 | O=C(c1cnc2c(F)c(F)c(F)cc2c1N1CCC2(CC1)OCCO2)N1CCN(C(=O)C2CC2)CC1 [Example 124, (4-(cyclopropanecarbonyl)piperazin-1-yl)(6,7,8-trifluoro-4-(1,4-dioxa-8-azaspiro[4.5]decan-8-yl)quinolin-3-yl)methanone]
< 500 | 1000 to 10000 | CCS(=O)(=O)N1CCN(C(=O)c2cnc3sccc3c2N2CCC(C)(C#N)CC2)CC1 [Example 218, 1-(5-(4-(ethylsulfonyl)piperazine-1-carbonyl)thieno[2,3-b]pyridin-4-yl)-4-methylpiperidine-4-carbonitrile]
> 10000 | > 10000 | COc1ccc2ncc(C(=O)N3CCN(C(=O)C4CC4)CC3)c(N3CCN(C(C)=O)CC3)c2c1 [Example 23, 1-(4-(3-(4-(cyclopropanecarbonyl)piperazine-1-carbonyl)-6-methoxyquinolin-4-yl)piperazin-1-yl)ethanone]
< 500 | < 500 | CS(=O)(=O)N1CCN(C(=O)c2cnc3ccc(F)cc3c2N2CCC(C#N)(CC3CC3)CC2)CC1 [Example 243, 4-(cyclopropylmethyl)-1-(6-fluoro-3-(4-(methylsulfonyl)piperazine-1-carbonyl)quinolin-4-yl)piperidine-4-carbonitrile]
< 500 | 1000 to 10000 | CCN(CC)C(=O)N1CCN(C(=O)c2cnc3c(F)cc(F)cc3c2N2CCC3(CC2)OCCO3)CC1 [Example 159, 4-(6,8-difluoro-4-(1,4-dioxa-8-azaspiro[4.5]decan-8-yl)quinoline-3-carbonyl)-N,N-diethylpiperazine-1-carboxamide]
< 500 | 1000 to 10000 | CCC(=O)N1CCN(C(=O)c2cnc3cc(OC)ccc3c2N2CCC(C)(C#N)CC2)CC1 [Example 102, 1-(7-methoxy-3-(4-propionylpiperazine-1-carbonyl)quinolin-4-yl)-4-methylpiperidine-4-carbonitrile]
< 500 | 1000 to 10000 | COc1ccc2c(N3CCC(C)(C#N)CC3)c(C(=O)N3CCN(C(=O)C(C)C)CC3)cnc2c1 [Example 103, 1-(3-(4-isobutyrylpiperazine-1-carbonyl)-7-methoxyquinolin-4-yl)-4-methylpiperidine-4-carbonitrile]
> 10000 | > 10000 | COc1ccc2ncc(C(=O)N3CCN(C(=O)C4CC4)CC3)c(N3CCC(F)(F)CC3)c2c1 [Example 44, (4-(cyclopropanecarbonyl)piperazin-1-yl)(4-(4,4-difluoropiperidin-1-yl)-6-methoxyquinolin-3-yl)methanone]
< 500 | 1000 to 10000 | COc1ccc2c(N3CCC(C)(C#N)CC3)c(C(=O)N3CCN(S(C)(=O)=O)CC3)cnc2c1 [Example 105, 1-(7-methoxy-3-(4-(methylsulfonyl)piperazine-1-carbonyl)quinolin-4-yl)-4-methylpiperidine-4-carbonitrile]
< 500 | < 500 | CN(C)C(=O)N1CCN(C(=O)c2cnc3ccc(Cl)cc3c2N2CCC(C#N)(c3ccccc3)CC2)CC1 [Cpd. 312, 4-(6-chloro-4-(4-cyano-4-phenylpiperidin-1-yl)quinoline-3-carbonyl)-N,N-dimethylpiperazine-1-carboxamide]
< 500 | < 500 | Cc1ccc(C2(C#N)CCN(c3c(C(=O)N4CCN(C(=O)C5CC5)CC4)cnc4ccc(F)cc34)CC2)c(F)c1 [Example 290, 1-(3-(4-(cyclopropanecarbonyl)piperazine-1-carbonyl)-6-fluoroquinolin-4-yl)-4-(2-fluoro-4-methylphenyl)piperidine-4-carbonitrile]
1000 to 10000 | > 10000 | C=CC(=O)N1CCN(c2c(C(=O)N3CCN(S(C)(=O)=O)CC3)cnc3ccc(F)cc23)CC1 [Example 220, 1-(4-(6-fluoro-3-(4-(methylsulfonyl)piperazine-1-carbonyl)quinolin-4-yl)piperazin-1-yl)prop-2-en-1-one]
< 500 | < 500 | N#CC1(c2ccc(-c3c(C(=O)Nc4cnn(CCO)c4)cnc4ccc(F)cc34)cc2)CC1 [Cpd. 343, 4-(4-(1-cyanocyclopropyl)phenyl)-6-fluoro-N-(1-(2-hydroxyethyl)-1H-pyrazol-4-yl)quinoline-3-carboxamide]
< 500 | 500 to 1000 | O=C(C1CC1)C1CCN(C(=O)c2cnc3ccc(F)cc3c2N2CCC3(CC2)OCCO3)CC1 [Example 191, (4-(cyclopropanecarbonyl)piperidin-1-yl)(6-fluoro-4-(1,4-dioxa-8-azaspiro[4.5]decan-8-yl)quinolin-3-yl)methanone]
1000 to 10000 | > 10000 | CC1(C#N)CCN(c2c(C(=O)N3CCN(C(=O)N4CCCC4)CC3)cnc3ccc(F)cc23)CC1 [Example 155, 1-(6-fluoro-3-(4-(pyrrolidine-1-carbonyl)piperazine-1-carbonyl)quinolin-4-yl)-4-methylpiperidine-4-carbonitrile]
< 500 | 1000 to 10000 | O=C(c1cnc2ccc(F)cc2c1N1CCC2(CC1)C(=O)Cc1ccccc12)N1CCN(C(=O)C2CC2)CC1 [Example 246, 1′-(3-(4-(cyclopropanecarbonyl)piperazine-1-carbonyl)-6-fluoroquinolin-4-yl)spiro[indene-1,4′-piperidin]-2(3H)-one]
500 to 1000 | > 10000 | COc1ccc2ncc(C(=O)N3CCC(F)(F)CC3)c(N3CCC4(CC3)OCCO4)c2c1 [Example 32, (4,4-difluoropiperidin-1-yl)(6-methoxy-4-(1,4-dioxa-8-azaspiro[4.5]decan-8-yl)quinolin-3-yl)methanone]
< 500 | 1000 to 10000 | CC1(C#N)CCN(c2c(C(=O)N3CCN(C(=O)C4CC4)CC3)cnc3c(F)cc(F)cc23)CC1 [Example 125, 1-(3-(4-(cyclopropanecarbonyl)piperazine-1-carbonyl)-6,8-difluoroquinolin-4-yl)-4-methylpiperidine-4-carbonitrile]
< 500 | < 500 | N#CC1(c2ccccc2)CCN(c2c(C(=O)N3CC4(C3)CS(=O)(=O)C4)cnc3ccc(F)cc23)CC1 [Cpd. 328, 1-(3-(2,2-dioxido-2-thia-6-azaspiro[3.3]heptane-6-carbonyl)-6-fluoroquinolin-4-yl)-4-phenylpiperidine-4-carbonitrile]
< 500 | 1000 to 10000 | CCS(=O)(=O)N1CCN(C(=O)c2cnc3cc(F)c(F)cc3c2N2CCC3(CC2)OCCO3)CC1 [Example 171, (6,7-difluoro-4-(1,4-dioxa-8-azaspiro[4.5]decan-8-yl)quinolin-3-yl)(4-(ethylsulfonyl)piperazin-1-yl)methanone]
1000 to 10000 | > 10000 | C[C@@H]1CN(C(=O)c2cnc3ccc(F)cc3c2N2CCC(C)(C#N)CC2)C[C@H](C)N1S(C)(=O)=O [Example 225, 1-(3-((3R*,5S*)-3,5-dimethyl-4-(methylsulfonyl)piperazine-1-carbonyl)-6-fluoroquinolin-4-yl)-4-methylpiperidine-4-carbonitrile]
< 500 | 1000 to 10000 | COc1c(F)cc2c(N3CCC4(CC3)OCCO4)c(C(=O)N3CCN(C(=O)C4CC4)CC3)cnc2c1F [Example 123, (4-(cyclopropanecarbonyl)piperazin-1-yl)(6,8-difluoro-7-methoxy-4-(1,4-dioxa-8-azaspiro[4.5]decan-8-yl)quinolin-3-yl)methanone]
> 10000 | > 10000 | COc1ccc2ncc(C(=O)N3CCN(C(=O)C4CC4)CC3)c(N3CCC(C#N)CC3)c2c1 [Example 25, 1-(3-(4-(cyclopropanecarbonyl)piperazine-1-carbonyl)-6-methoxyquinolin-4-yl)piperidine-4-carbonitrile]
< 500 | 1000 to 10000 | CC1(O)CCN(C(=O)c2cnc3ccc(F)cc3c2-c2ccc(C3(C#N)CC3)cc2)CC1 [Cpd. 350, 1-(4-(6-fluoro-3-(4-hydroxy-4-methylpiperidine-1-carbonyl)quinolin-4-yl)phenyl)cyclopropane-1-carbonitrile]
500 to 1000 | > 10000 | COc1ccc2ncc(C(=O)N3CCOCC3)c(N3CCC4(CC3)OCCO4)c2c1 [Example 39, (6-methoxy-4-(1,4-dioxa-8-azaspiro[4.5]decan-8-yl)quinolin-3-yl)(morpholino)methanone]
< 500 | > 10000 | O=C(c1cnc2ccc(F)cc2c1N1CCC2(CC1)OCCO2)N1CCN(C(=O)N2CCCC2)CC1 [Example 150, (6-fluoro-4-(1,4-dioxa-8-azaspiro[4.5]decan-8-yl)quinolin-3-yl)(4-(pyrrolidine-1-carbonyl)piperazin-1-yl)methanone]
